# Laboratory results: US20130324707A1, “SYNTHETIC AMPHIPHILES FOR MEMBRANE PROTEIN MANIPULATION” (The Board of Trustees of the Leland Stanford Junior …, priority 2009, published 2013)
# Marks after values point to notes of the source that are not given here.
# Key:
# [1] = Critical micelle concentration (CMC) by fluorescent dye uptake; format: physicochemical
# Text: The Critical Micelle Concentrations (CMCs) of compounds of the invention can be determined by standard techniques known to those of skill in the art. For example, CMCs of the carbohydrate-based amphiphiles described herein can be determined by monitoring uptake of a fluorescent dye (e.g., a dye such as 1,6-diphenylhexatriene) with increasing detergent concentration, monitored by fluorescence spectroscopy.
# [2] = tested on: human β2 adrenergic receptor-T4-lyosome fusion protein (β2AR-T4L); assay: Thermal stabilization (Tm) of β2AR-T4L in amphiphile, normalized peak ratio 341 nm/356 nm; set-up: Tm: unit: °C; conditions: for Tm: β2AR-T4L
# Text: FIG. 3 illustrates the results of comparing MNGs to MPAs at 10×CMC for stabilization efficacy of β2 adrenergic receptor-T4-lyosome fusion protein (β2AR-T4L), according to an embodiment of the invention.
# FIG. 4 illustrates the results of comparing MNGs to MPAs at 50×CMC for stabilization efficacy of β2AR-T4L, according to an embodiment of the invention. Similar to FIG. 3, the horizontal dotted line extending from 50% on the y-axis in FIG. 4 indicates the melting temperature (Tm).
# The branched amphiphiles of the invention have shown to have several advantageous properties that match or surpass those of many known amphiphiles. The branched nature provide improved stabilization, attributable to the dual saccharide chains, and improved solubilization, attributable to the dual hydrophobic tail groups. FIGS. 3 and 4 show a comparative study showing normalized peak ratios (341 nm/356 nm) for six different amphiphiles (illustrated in Schemes F and G) from 25° C. to 85° C., at 10×CMC and 50×CMC for human β2 adrenergic receptor-T4-lyosome fusion protein (β2AR-T4L).
# [3] = 10 × CMC, scan from 25° C. to 85° C.
# [4] = concentration not given, matches most favourable (*) Tm minus DDM 63.5
CMC [1],CMC (%) [1],"ΔTm ([2]; 10 × CMC, relative to DDM)","Tm [2, 3]","ΔTm ([2]; 50 × CMC, relative to DDM)",Tm ([2]; 50 × CMC),"ΔTm [2, 4]",Structure (SMILES)
2.1 mM,0.13%,,,,,,OCC1OC(OCC(COC2OC(CO)C(O)C(O)C2O)(CSC2CCCCC2)CSC2CCCCC2)C(O)C(O)C1O (stereo not drawn) [GNG-1]
72 mM,4.7%,,,,,,O=C(NCC(CNC(=O)C1CCCC1)(COC1OC(CO)C(O)C(O)C1O)COC1OC(CO)C(O)C(O)C1O)C1CCCC1 (stereo not drawn) [GNG-4]
1.55 mM,0.08%,,,,,,CCCCCCOCC(COCCCCCC)(COC1OC(CO)C(O)C(O)C1O)COC1OC(CO)C(O)C(O)C1O (stereo not drawn) [GNG-6]
0.1 mM,0.0092%,,,,,,CCCCCCCOCC(COCCCCCCC)(COC1OC(CO)C(O)C(O)C1O)COC1OC(CO)C(O)C(O)C1O (stereo not drawn) [GNG-7]
17 mM,1.07%,,,,,,OCC1OC(OCC(COC2CCCCC2)(COC2CCCCC2)COC2OC(CO)C(O)C(O)C2O)C(O)C(O)C1O (stereo not drawn) [GNG-10]
0.82 mM,0.06%,,,,,,OCC1OC(OCC(COC2OC(CO)C(O)C(O)C2O)(CSCCc2ccccc2)CSCCc2ccccc2)C(O)C(O)C1O (stereo not drawn) [GNG-11]
1.02 mM,0.058%,,,,,,CCCCCCC(CCCCCC)(COC1OC(CO)C(O)C(O)C1O)COC1OC(CO)C(O)C(O)C1O (stereo not drawn) [GNG-12]
9.64 mM,0.373%,,,,,,CCCCCC(CCCCC)(COC1OC(CO)C(O)C(O)C1O)COC1OC(CO)C(O)C(O)C1O (stereo not drawn) [GNG-13]
13.4 mM,0.647%,,,,,,CCCCCOCC(COCCCCC)(COC1OC(CO)C(O)C(O)C1O)COC1OC(CO)C(O)C(O)C1O (stereo not drawn) [GNG-14]
0.017 mM,0.0019%,+1.6,65.1 (n = 3)*,+2.1,65.1 (n = 3)*,+1.6,CCCCCCCCCCC(=O)NCC(CNC(=O)CCCCCCCCCC)(CO[C@H]1OC(CO)[C@H](O[C@@H]2OC(CO)[C@H](O)C(O)[C@H]2O)C(O)[C@H]1O)CO[C@H]1OC(CO)[C@H](O[C@@H]2OC(CO)[C@H](O)C(O)[C@H]2O)C(O)[C@H]1O (stereo partly drawn) [MNG-1]
0.0037 mM,0.00038%,+0.6,64.1 (n = 3),+4.3,67.3 (n = 3)*,+3.8,CCCCCCCCCCCC(CCCCCCCCCCC)(CO[C@H]1OC(CO)[C@H](O[C@@H]2OC(CO)[C@H](O)C(O)[C@H]2O)C(O)[C@H]1O)CO[C@H]1OC(CO)[C@H](O[C@@H]2OC(CO)[C@H](O)C(O)[C@H]2O)C(O)[C@H]1O (stereo partly drawn) [MNG-4]
0.009 mM,0.00096%,+1.1,64.6 (n = 3),+4.1,67.1 (n = 3)*,+3.6,CCCCCCCCCCOCC(COCCCCCCCCCC)(CO[C@H]1OC(CO)[C@H](O[C@@H]2OC(CO)[C@H](O)C(O)[C@H]2O)C(O)[C@H]1O)CO[C@H]1OC(CO)[C@H](O[C@@H]2OC(CO)[C@H](O)C(O)[C@H]2O)C(O)[C@H]1O (stereo partly drawn) [MNG-6]
0.39 mM,0.043%,,,,,,O=C(CCCC1CCCCC1)NCC(CNC(=O)CCCC1CCCCC1)(COC1OC(CO)C(OC2OC(CO)C(O)C(O)C2O)C(O)C1O)COC1OC(CO)C(OC2OC(CO)C(O)C(O)C2O)C(O)C1O (stereo not drawn) [MNG-9]
0.053 mM,0.0059%,,,,,,O=C(CCCCC1CCCCC1)NCC(CNC(=O)CCCCC1CCCCC1)(COC1OC(CO)C(OC2OC(CO)C(O)C(O)C2O)C(O)C1O)COC1OC(CO)C(OC2OC(CO)C(O)C(O)C2O)C(O)C1O (stereo not drawn) [MNG-10]
0.043 mM,0.0047%,,,,,,CCCCCCCCCC(=O)NCC(CNC(=O)CCCCCCCCC)(COC1OC(CO)C(OC2OC(CO)C(O)C(O)C2O)C(O)C1O)COC1OC(CO)C(OC2OC(CO)C(O)C(O)C2O)C(O)C1O (stereo not drawn) [MNG-13]
0.02 mM,0.0022%,,,,,,CCCCCCCCCCCCCC(=O)NCC(CNC(=O)CCCCCCC)(COC1OC(CO)C(OC2OC(CO)C(O)C(O)C2O)C(O)C1O)COC1OC(CO)C(OC2OC(CO)C(O)C(O)C2O)C(O)C1O (stereo not drawn) [MNG-15]

CMC [1],CMC (%) [1],"ΔTm ([2]; 10 × CMC, relative to DDM)","Tm [2, 3]","ΔTm ([2]; 50 × CMC, relative to DDM)",Tm ([2]; 50 × CMC),"ΔTm [2, 4]",Structure (SMILES)
0.023 mM,0.0026%,,,,,,CCCCCCCCCCCCCCCC(=O)NCC(CNC(=O)CCCCC)(COC1OC(CO)C(OC2OC(CO)C(O)C(O)C2O)C(O)C1O)COC1OC(CO)C(OC2OC(CO)C(O)C(O)C2O)C(O)C1O (stereo not drawn) [MNG-16]
0.02 mM,0.002%,,,,,,CCCCCCCCCCCCC(=O)NCC(CNC(=O)CCCCCCCC)(COC1OC(CO)C(OC2OC(CO)C(O)C(O)C2O)C(O)C1O)COC1OC(CO)C(OC2OC(CO)C(O)C(O)C2O)C(O)C1O (stereo not drawn) [MNG-17]
0.024 mM,0.0027%,,,,,,CCCCCCCCCCCCCCC(=O)NCC(CNC(=O)CCCCCC)(COC1OC(CO)C(OC2OC(CO)C(O)C(O)C2O)C(O)C1O)COC1OC(CO)C(OC2OC(CO)C(O)C(O)C2O)C(O)C1O (stereo not drawn) [MNG-18]
0.18 mM,0.0194%,,,,,,CCCCCCCC(=O)NCC(CNC(=O)CCCCC1CCCCC1)(COC1OC(CO)C(OC2OC(CO)C(O)C(O)C2O)C(O)C1O)COC1OC(CO)C(OC2OC(CO)C(O)C(O)C2O)C(O)C1O (stereo not drawn) [MNG-19]
0.3 mM,0.0319%,,,,,,CCCCCCCCC(=O)NCC(CNC(=O)CCCCCCCC)(COC1OC(CO)C(OC2OC(CO)C(O)C(O)C2O)C(O)C1O)COC1OC(CO)C(OC2OC(CO)C(O)C(O)C2O)C(O)C1O (stereo not drawn) [MNG-20]
0.24 mM,0.0268%,,,,,,CCCCCCCC(=O)NCC(CNC(=O)C(C1CCCCC1)C1CCCCC1)(COC1OC(CO)C(OC2OC(CO)C(O)C(O)C2O)C(O)C1O)COC1OC(CO)C(OC2OC(CO)C(O)C(O)C2O)C(O)C1O (stereo not drawn) [MNG-21]
0.9 mM,0.1162%,,,,,,O=C(Cc1cc(C(F)(F)F)cc(C(F)(F)F)c1)NCC(CNC(=O)Cc1cc(C(F)(F)F)cc(C(F)(F)F)c1)(COC1OC(CO)C(OC2OC(CO)C(O)C(O)C2O)C(O)C1O)COC1OC(CO)C(OC2OC(CO)C(O)C(O)C2O)C(O)C1O (stereo not drawn) [MNG-23]
0.84 mM,0.1108%,,,,,,O=C(CCc1cc(C(F)(F)F)cc(C(F)(F)F)c1)NCC(CNC(=O)CCc1cc(C(F)(F)F)cc(C(F)(F)F)c1)(COC1OC(CO)C(OC2OC(CO)C(O)C(O)C2O)C(O)C1O)COC1OC(CO)C(OC2OC(CO)C(O)C(O)C2O)C(O)C1O (stereo not drawn) [MNG-24]
0.12 mM,0.0134%,,,,,,CC(C)(C)C1CCC(C(=O)NCC(CNC(=O)C2CCC(C(C)(C)C)CC2)(COC2OC(CO)C(OC3OC(CO)C(O)C(O)C3O)C(O)C2O)COC2OC(CO)C(OC3OC(CO)C(O)C(O)C3O)C(O)C2O)CC1 (stereo not drawn) [MNG-26]
0.008 mM,0.0009%,,,,,,CCCCCCCCCCCC(=O)NCC(CNC(=O)CCCCCCCCCCC)(COC1OC(CO)C(OC2OC(CO)C(O)C(O)C2O)C(O)C1O)COC1OC(CO)C(OC2OC(CO)C(O)C(O)C2O)C(O)C1O (stereo not drawn) [MNG-27]
0.017 mM,0.0018%,,,,,,CCCCCCCCCOCC(COCCCCCCCCC)(COC1OC(CO)C(OC2OC(CO)C(O)C(O)C2O)C(O)C1O)COC1OC(CO)C(OC2OC(CO)C(O)C(O)C2O)C(O)C1O (stereo not drawn) [MNG-30]
0.034 mM,0.0034%,,,,,,CCCCCCCCOCC(COCCCCCCCC)(COC1OC(CO)C(OC2OC(CO)C(O)C(O)C2O)C(O)C1O)COC1OC(CO)C(OC2OC(CO)C(O)C(O)C2O)C(O)C1O (stereo not drawn) [MNG-31]
0.092 mM,0.0095%,,,,,,CCCCC(CCCC)OCC(COC(CCCC)CCCC)(COC1OC(CO)C(OC2OC(CO)C(O)C(O)C2O)C(O)C1O)COC1OC(CO)C(OC2OC(CO)C(O)C(O)C2O)C(O)C1O (stereo not drawn) [MNG-33]
,,−12.1,51.4 (n = 3)*,,,−12.1,CCCCCCCCCCC(=O)NCCOC1OC(CO)C(OC2OC(CO)C(O)C(O)C2O)C(O)C1O (stereo not drawn) [MPA-6]
,,−4.7,58.8 (n = 3)*,−4.7,58.3 (n = 3),−4.7,CCCCCCCCCCOCCOC1OC(CO)C(OC2OC(CO)C(O)C(O)C2O)C(O)C1O (stereo not drawn) [MPA-11]
